Measurements as given in patent publication US20250090437A1, “COSMETIC COMPOUNDING AGENT, COSMETIC AND PRODUCTION METHOD THEREOF” (MIYOSHI OIL & FAT CO., LTD., priority 2019, published 2025).

Columns and labels:
[1] = Sensory evaluation on damaged hair after using organic ammonium salt; design: species or system human; conditions: compared to the compounds of the comparative examples
Protocol: Here, an 80 wt % aqueous solution(s) of each of the compounds B11, B12, B23, B26 and B27 (content in terms of anhydride in the cases of the compounds B11, B12 and B23) were prepared and used as samples. Next, one minute was spent in evenly applying 10.0 g of each sample to a bundle of the damaged hairs weighing about 10 g, using a brush; the bundle of the damaged hairs was then left for 5 min. After leaving it for 5 min, the bundle of the damaged hairs was rinsed with a hot water of 40° C. for 30 sec, and evaluated was a finger-combing capability at the time of performing washing. The hair bundle that had been rinsed was then dried with a towel and further subjected to air drying for a day, followed by evaluating items such as elasticity/resilience (feeling by bare hands), cohesiveness, surface smoothness and non-waviness, from the perspective of superiority or inferiority to a test hair bundle(s) uncoated with the sample.

[2] = Sensory evaluation on healthy hair after using organic ammonium salt; design: species or system human; conditions: compared to the compounds of the comparative examples
Protocol: Here, an 80 wt % aqueous solution(s) of each of the compounds B11, B12, B23, B26 and B27 (content in terms of anhydride in the cases of the compounds B11, B12 and B23) were prepared and used as samples. Next, one minute was spent in evenly applying 10.0 g of each sample to a bundle of the healthy hairs weighing about 10 g, using a brush; the bundle of the healthy hairs was then left for 5 min. After leaving it for 5 min, the bundle of the healthy hairs was rinsed with a hot water of 40° C. for 30 sec, and evaluated was a finger-combing capability at the time of performing washing. The hair bundle that had been rinsed was then dried with a towel and further subjected to air drying for a day, followed by evaluating items such as flexibility, finger-combing capability, texture, elasticity/resilience (feeling by bare hands), volume increase (visual evaluation), cohesiveness, moist feeling, surface smoothness, non-stickiness (feeling by bare hands) and gloss (visual evaluation), from the perspective of superiority or inferiority to a test hair bundle(s) uncoated with the sample.

[3] = Water retention property and adherability with respect to healthy hair; design: species or system human; conditions: for Adherability to the healthy hair: compared to the compounds of comparative examples B1 to B8
Protocol: In the following evaluations, a human black hair produced by Beaulax Co., Ltd was used as a healthy hair. A damaged hair was prepared by repeatedly having the healthy hair permed and bleached three times.
An 80 wt % aqueous solution of each of the compounds B1 to B26 (content in terms of anhydride in the cases of the compounds B1 to B23) was prepared, followed by using a Karl Fischer moisture meter (KF-200 by Mitsubishi Chemical Analytech Co., Ltd.) to confirm that a moisture rate was 20.0 wt %. As a healthy hair, there was used a chemically untreated healthy hair (human black hair by Beaulax Co., Ltd). The moisture rate (pre-test moisture rate A) of the hair was measured by an infrared moisture meter (by Kett Electric Laboratory).
After immersion, the hair was taken out, and KimWipes were then used to wipe off the compound until a change in weight was no longer observed, followed by measuring the weight of the hair (post-test hair weight B). The hair from which the compound had been wiped off was then placed into a thermo-hygrostat set to 40° C. and 35 to 40% RH. A moisture rate after 24 hours (post-test moisture rate B) was then measured, followed by calculating a rate of reduction in moisture with the following formula. Likewise, instead of the 80 wt % aqueous solution, evaluation was also performed in a similar manner using only an ion-exchange water (comparative example B4).
Further, an adhesion rate of the compound adhering to the hair was calculated with the following formula. […]

[4] = Water confinement property test (barrier property); format: physicochemical; conditions: 24 hours
Protocol: Next, 20.0 g of an ion-exchange water was put into a 40 mL pierce vial bottle (by AS ONE Corporation.), followed by removing an inner lid (rubber plug) of the pierce vial bottle, placing on the pierce vial bottle the filter paper to which each sample had been applied, and then plugging the bottle with an outer lid.
Further, Wm1, Wm2, Sm1 and Sm2 in the formula below respectively represent the following numerical values.
Wm1: Weight of ion-exchange water in vial before storage (using filter paper to which only ion-exchange water had been applied)
Wm2: Weight of ion-exchange water in vial after 24 hours (using filter paper to which only ion-exchange water had been applied)
Sm1: Weight of ion-exchange water in vial before storage (using filter paper to which sample had been applied)
Sm2: Weight of ion-exchange water in vial after 24 hours (using filter paper to which sample had been applied)

[5] = Stability of ascorbic acid-based compound (coloration); format: physicochemical; design: key to Appearance (Visual evaluation) Immediately after preparatiom / Appearance (Visual evaluation) After 7 days 50° C. / Appearance (Visual evaluation) After 7 days Room temperature: ⊚: Colorless and transparent; ∘: Light yellow; Δ: Yellow; x: Brown to black; conditions: 33 wt % aqueous solution
Protocol: With regard to a 33 wt/% aqueous solution of each of the compounds C46, C49 and C98 to C100 and water, a stability in an aqueous solution condition was visually evaluated. An evaluation method was such that there was prepared a 33 wt % aqueous solution of each of the compounds C46, C49 and C98 to C100, the aqueous solution was then left to stand still at room temperature or in a thermostatic bath of 50° C. for seven days; coloration before and after the still standing was visually confirmed. The evaluation criteria were as follows. • ⊚: Colorless and transparent • ∘: Light yellow • Δ: Yellow • x: Brown to black

[6] = Water retention property test 1; format: physicochemical; conditions: 80 wt % aqueous solution; for Pre-test moisture rate: before the test (Karl Fischer); for Post-test moisture rate / Rate of reduction in moisture: unsealed; for Post-test moisture rate / Rate of reduction in moisture / Water retention property test 1 Post-test moisture rate / Water retention property test 1 Rate of reduction in moisture: 24 hours at 40° C. and 25% RH
Protocol: A moisture rate after 24 hours was again measured (post-test moisture rate: B), followed by using the formula below to calculate a rate of reduction in moisture so as to evaluate the water retention property. • Pre-test moisture rate: A (%) • Post-test moisture rate: B (%)

[7] = Permeability to skin (horny layer tape stripping method); format: in vivo; conditions: extraction liquid, an hour after application to the arm, HPLC
Protocol: Skin permeability was evaluated by a horny layer tape stripping method. […] A sample was applied to the arm and then left thereon for an hour before performing tape stripping on the horn by eight layers. An adhered substance on this tape was then extracted with an ion-exchange water over the course of 10 min, followed by filtrating an extraction liquid thus obtained with a 0.2 μm filter, and then quantifying, via HPLC, the amount of each of the compounds C20, C64 and C97 in each extraction liquid filtrated.

[8] = 80 wt % aqueous solution, 0.01 mL/cm^2 on filter paper, 40° C. and 25% RH

In the case of `CCCCC/C=C\C/C=C\CCCCCCCC(=O)OCC(N)(CO)CO` [Compound B31, 2-amino-2-hydroxymethyl-1,3-propanediol linoleate], the “Sensory evaluation on damaged hair (elasticity/resilience, cohesiveness, surface smoothness, suppression of waviness)” value [1] is reported as “superior”, the “Sensory evaluation on healthy hair (flexibility, finger-combing, texture, elasticity/resilience, volume, cohesiveness, moist feeling, smoothness, non-stickiness, gloss)” value [2] is reported as “superior” and the “Adherability to the healthy hair” value [3] is reported as “higher adherability”. For the same molecule, the “Water evaporation inhibition rate” value ([4]; sample on filter paper over vial of water, 40° C., 25% RH) was 48.1%.

In the case of `O=C1O[C@H]([C@@H](O)CO)C([O-])=C1OP(=O)([O-])[O-].[Na+].[Na+].[Na+]` [Compound C100, sodium ascorbyl phosphate], the “Appearance (Visual evaluation) After 7 days 50° C.” value [5] is reported as “Δ~x”, the “Appearance (Visual evaluation) After 7 days Room temperature” value [5] is reported as “○~Δ” and the “Appearance (Visual evaluation) Immediately after preparatiom” value (“Appearance … after preparatiom” for short) [5] is reported as “⊚”.

For `O=C1O[C@H]([C@@H](O)CO)C(O)=C1O[C@H]1O[C@H](CO)[C@@H](O)[C@H](O)[C@H]1O` [Compound C99, ascorbic acid glucoside], the “Appearance (Visual evaluation) After 7 days 50° C.” value [5] was “Δ~x”, the “Appearance (Visual evaluation) After 7 days Room temperature” value [5] was “○” and the “Appearance … after preparatiom” value [5] was “⊚”.

For `CCCC[N+](CCCC)(CCCC)CCCC.[Br-]` [Compound A54, tetrabutylammonium bromide, reference compound], the Post-test moisture rate ([3]; healthy hair immersed 60 min in 80 wt % aqueous solution, after 24 hours at 40° C., 35 to 40% RH, pre-test 7.6%) was 4.0%, the Compound adhesion rate ([3]; healthy hair immersed 60 min in 80 wt % aqueous solution, listed as B24) was 1.0% and the “Rate of reduction in moisture” value ([3]; healthy hair, 80 wt % aqueous solution, 24 hours at 40° C., 35 to 40% RH) was 47%. For the same molecule, the “Water evaporation inhibition rate” value [4, 8] was 29.5%, the Pre-test moisture rate [6] was 20.0% and the Post-test moisture rate [6] was 15.3%. The “Rate of reduction in moisture” value [6] was 23.6%.

In the case of `CC(C)(CO)CO` [Compound C47], the “Water evaporation inhibition rate” value [4, 8] is reported as 34.8%, the “Water retention property test 1 Pre-test moisture rate” value [6] is reported as 20.0% and the “Water retention property test 1 Post-test moisture rate” value [6] is reported as 19.2%. For the same molecule, the “Water retention property test 1 Rate of reduction in moisture” value [6] was 4.7%.

For `CCCCCCCC/C=C\CCCCCCCC(=O)OCC(C)(N)CO` (stereo not drawn) [Compound B33, 2-amino-2-methyl-1,3-propanediol oleate], the “Sensory evaluation on damaged hair (elasticity/resilience, cohesiveness, surface smoothness, suppression of waviness)” value [1] was “superior”, the “Sensory evaluation on healthy hair (flexibility, finger-combing, texture, elasticity/resilience, volume, cohesiveness, moist feeling, smoothness, non-stickiness, gloss)” value [2] was “superior” and the “Adherability to the healthy hair” value [3] was “higher adherability”.

In the case of `CC(C)CCCCCCCCCCCCCCC(=O)OCC(C)(N)CO` (stereo not drawn) [Compound B35, 2-amino-2-methyl-1,3-propanediol isostearate], the “Sensory evaluation on damaged hair (elasticity/resilience, cohesiveness, surface smoothness, suppression of waviness)” value [1] is reported as “superior”, the “Sensory evaluation on healthy hair (flexibility, finger-combing, texture, elasticity/resilience, volume, cohesiveness, moist feeling, smoothness, non-stickiness, gloss)” value [2] is reported as “superior” and the “Adherability to the healthy hair” value [3] is reported as “higher adherability”.

For `CCCCC/C=C\C/C=C\CCCCCCCC(=O)OCC(C)(N)CO` (stereo not drawn) [Compound B34, 2-amino-2-methyl-1,3-propanediol linoleate], the “Sensory evaluation on damaged hair (elasticity/resilience, cohesiveness, surface smoothness, suppression of waviness)” value [1] was “superior”, the “Sensory evaluation on healthy hair (flexibility, finger-combing, texture, elasticity/resilience, volume, cohesiveness, moist feeling, smoothness, non-stickiness, gloss)” value [2] was “superior” and the “Adherability to the healthy hair” value [3] was “higher adherability”.

With `O=C1O[C@H]([C@@H](O)CO)C(O)=C1O` [Compound C98, ascorbic acid] the “Appearance (Visual evaluation) After 7 days 50° C.” value [5] was “x”, the “Appearance (Visual evaluation) After 7 days Room temperature” value [5] was “x” and the “Appearance … after preparatiom” value [5] was “⊚”.

In the case of `CC(CO)(CO)CO` [Compound C55], the “Water evaporation inhibition rate” value [4, 8] is reported as 34.1%, the Pre-test moisture rate [6] is reported as 20.0% and the Post-test moisture rate [6] is reported as 18.4%. The “Rate of reduction in moisture” value [6] was 7.9%.

In the case of `CC(C)CCCCCCCCCCCCCCC(=O)OCC(N)(CO)CO` [Compound B32, 2-amino-2-hydroxymethyl-1,3-propanediol isostearate], the “Sensory evaluation on damaged hair (elasticity/resilience, cohesiveness, surface smoothness, suppression of waviness)” value [1] is reported as “superior”, the “Sensory evaluation on healthy hair (flexibility, finger-combing, texture, elasticity/resilience, volume, cohesiveness, moist feeling, smoothness, non-stickiness, gloss)” value [2] is reported as “superior” and the “Adherability to the healthy hair” value [3] is reported as “higher adherability”.

For `CC(O)C(=O)[O-].[K+]` (stereo not drawn) [Compound C97, potassium lactate], the Compound concentration ([7]; Tape stripping layer 1) was 0.020 ml/L, the Compound concentration ([7]; Tape stripping layer 2) was 0.017 ml/L and the Compound concentration ([7]; Tape stripping layer 3) was 0.016 ml/L. For the same molecule, the Compound concentration ([7]; Tape stripping layer 4) was 0.009 ml/L, the Compound concentration ([7]; Tape stripping layer 5) was 0.008 ml/L and the Compound concentration ([7]; Tape stripping layer 6) was 0.006 ml/L. For the same molecule, the Compound concentration ([7]; Tape stripping layer 7) was 0.006 ml/L and the Compound concentration ([7]; Tape stripping layer 8) was 0.006 ml/L.

With `CC(C)(C)CO` [Compound C43] the “Water evaporation inhibition rate” value [4, 8] was 39.7%, the “Water retention property test 1 Pre-test moisture rate” value [6] was 20.0% and the “Water retention property test 1 Post-test moisture rate” value [6] was 19.3%. For the same molecule, the “Water retention property test 1 Rate of reduction in moisture” value [6] was 4.4%.

With `CCCCn1cc[n+](C)c1.F[B-](F)(F)F` [Compound C63, 1-butyl-3-methylimidazolium tetrafluoroborate, reference compound] the “Water evaporation inhibition rate” value [4, 8] was 25.7%, the Pre-test moisture rate [6] was 20.0% and the Post-test moisture rate [6] was 11.7%. For the same molecule, the “Rate of reduction in moisture” value [6] was 41.7%.

For `CCCCCCCC/C=C\CCCCCCCC(=O)OCC(N)(CO)CO` [Compound B30, 2-amino-2-hydroxymethyl-1,3-propanediol oleate], the “Sensory evaluation on damaged hair (elasticity/resilience, cohesiveness, surface smoothness, suppression of waviness)” value [1] was “superior”, the “Sensory evaluation on healthy hair (flexibility, finger-combing, texture, elasticity/resilience, volume, cohesiveness, moist feeling, smoothness, non-stickiness, gloss)” value [2] was “superior” and the “Adherability to the healthy hair” value [3] was “higher adherability”.

For `CC(CO)(CO)CO` [Compound C50], the “Water evaporation inhibition rate” value [4, 8] was 39.1%, the Pre-test moisture rate [6] was 20.0% and the Post-test moisture rate [6] was 19.1%. For the same molecule, the “Rate of reduction in moisture” value [6] was 4.4%.
